Reference: patent US7820689B2, “Methods and compositions for preventing or treating cardiovascular disease” (priority 2006, dated 2010)

Key:
microglia = settings: cited from earlier work
[1] = tested on: superoxide production in THP-1 cell culture; assay: LPS-induced macrophage superoxide production, lucigenin-enhanced chemiluminescence; assay type: cell-based, human
Protocol: (§1) THP-1 cells were grown in the RPMI-1640 medium containing 10% fetal bovine serum at 37° C. in 5% CO2. The cells were differentiated to macrophages after treatment of the culture with 100 nM PMA for 24 hours. The cell suspension (5×10^5) was added in 0.5 mL into each well of the tissue culture plates. […] LPS was dissolved in sterile water and stored at −70° C. in aliquots. LDL was isolated from human endotoxin-free heparin plasma and was oxidized using CuSO4. In brief, LDL (1 mL, 1 mg/mL) was dialyzed in 500 mL phosphate-buffered saline (PBS, pH 7.4) overnight. Copper sulfate was added to a final concentration of 5 μM, and the LDL was allowed to oxidize at room temperature for 24 hours.
(§2) The supernatants were harvested and the TNF-α, IL-6, and MCP-1 levels were determined by ELISA. Superoxide production in the THP-1 cell culture was measured by lucigenin-enhanced chemiluminescence as described previously (Khadour F H, Panas D, Ferdinandy P, et al. Am J Physiol Heart Circ Physiol, 28:H1108-15 2002). LPS-treated THP-1 cells were treated with PBS containing 1.25 mM lucigenin, and counts were obtained for a 10-minute period in a luminometer (Berthold Technologies, Germany) as relative light units (RLU) emitted. Background counts determined in cell-free preparations were subtracted. Superoxide levels were reported as RLU per 10 minutes and were normalized to the volume (mL) of cell suspension added (i.e., RUL/10 min/mL).
We used lucigenin-enhanced chemiluminescence to assess the DM effect on macrophage superoxide production after stimulation.

[2] = tested on: TNF-α release from THP-1 cells after oxLDL stimulation; assay: oxLDL-induced TNF-α release in THP-1 macrophage culture (ELISA); assay type: cell-based, human; settings: for TNF-α in medium: oxLDL, oxLDL alone 2.64±0.61; for TNFα in medium: oxLDL 10 μg/mL, oxLDL alone 1.70±0.06
Protocol: THP-1 cells were grown in the RPMI-1640 medium containing 10% fetal bovine serum at 37° C. in 5% CO2. The cells were differentiated to macrophages after treatment of the culture with 100 nM PMA for 24 hours. The cell suspension (5×10^5) was added in 0.5 mL into each well of the tissue culture plates. For each experiment, naloxone was prepared immediately before use. LPS was dissolved in sterile water and stored at −70° C. in aliquots. LDL was isolated from human endotoxin-free heparin plasma and was oxidized using CuSO4. In brief, LDL (1 mL, 1 mg/mL) was dialyzed in 500 mL phosphate-buffered saline (PBS, pH 7.4) overnight. Copper sulfate was added to a final concentration of 5 μM, and the LDL was allowed to oxidize at room temperature for 24 hours.
as §2

[3] = Serum lipid levels in apoE-deficient mice on high cholesterol diet; assay type: in vivo
Protocol: ApoE-deficient mice were fed with a high cholesterol diet containing 21% fat and 0.15% cholesterol (PMI LabDiet 40097, Richmond, Ind., USA) from 8-17 weeks of age. […] After completing the treatment, blood samples were collected by direct heart puncture when sacrificing the animals. The serum levels of total cholesterol, LDL, HDL, and triglyceride were measured by enzymatic methods using an automatic analyzer (Model 747, Hitachi Ltd. Co., Tokyo, Japan). The aorta was dissected from the aortic valve to the iliac bifurcation. To identify lipid-rich atherosclerotic lesions, the aorta was rinsed in 50% isopropanol for 2 minutes, incubated in 0.67% Oil-Red-O for 15 minutes, and washed by 10% isopropanol for 2 minutes. Using a dissection microscope, the area of each atherosclerotic lesion was measured with Image Pro Plus software (Version 3.0.1; Media Cybernetics, Inc, Silver Spring, Md., USA) and expressed as percentage of atherosclerotic area/total area of the aorta.

[4] = tested on: TNF-α production from the THP-1 cell culture after LPS stimulation; assay: LPS-induced TNF-α production in PMA-differentiated THP-1 macrophage culture (ELISA); assay type: cell-based, human; settings: for TNF-α in medium: LPS, LPS alone 8.85±0.81; for TNF-α production after LPS: 1 h before 100 ng/mL LPS, 24 h
[5] = tested on: superoxide production in PMN; assay: Superoxide production in PMN of apoE-deficient mice, lucigenin chemiluminescence; assay type: in vivo; settings: controls 519,000±115,000
Protocol: ApoE-deficient mice were treated daily with DM 5 mg/kg/day (n=9), 10 mg/kg/day (n=9), 20 mg/kg/day (n=9) or 40 mg/kg/day (n=11) for 10 weeks. Production of superoxide in PMN (1×10^6 cells/mL PBS) (A) was measured by lucigenin-enhanced chemiluminescence. The results are expressed as mean±SD. (P<0.05, control versus 10 mg/kg/day; P<0.001, control versus 20 mg/kg/day and 40 mg/kg/day). Production of superoxide in the thoracic aorta (B) was also measured by lucigenin-enhanced chemiluminescence. The results are expressed as mean±SD. (P<0.05, control versus 10 mg/kg/day and 40 mg/kg/day; P<0.01, control versus 20 mg/kg/day).
Having established the DM inhibitory effect on macrophage activation and NADPH oxidase, we next examined the functional consequences of which in vivo. […] Sections of left carotid arteries from the mice were stained with DHE and then imaged with a laser scanning confocal microscope.

[6] = tested on: MCP-1 release from THP-1 cells after LPS stimulation; assay: LPS-induced MCP-1 release in THP-1 macrophage culture (ELISA); assay type: cell-based, human; settings: 1 μM pretreatment, LPS alone 9.22±1.17
Protocol: as §1
as §2, with “Superoxide levels were reported as RLU per 10 minutes and were normalized to the volume (mL) of cell suspension added (i.e., RUL/10 min/mL).” left out

[7] = tested on: MCP-1 release from THP-1 cells after oxLDL stimulation; assay: oxLDL-induced MCP-1 release in THP-1 macrophage culture (ELISA); assay type: cell-based, human; settings: 0.01 μM pretreatment, oxLDL alone 2.23±0.34
Protocol: as §1
as §2, with “Superoxide levels were reported as RLU per 10 minutes and were normalized to the volume (mL) of cell suspension added (i.e., RUL/10 min/mL).” left out

COc1ccc2c(c1)[C@]13CCCC[C@@H]1[C@H](C2)N(C)CC3 [DM, (+)-3-methoxy-17-methyl-9α,13α,14α-morphinan]
microglia activation (microglia; 1 μM DM, Liu et al. 2003): could inhibit microglia activation | macrophage superoxide production ([1]; DM 0.01 μM pretreatment, LPS alone 612,000±105,000): 341,000±82,000 RLU/15 min/mL | macrophage superoxide production ([1]; DM 0.1 μM pretreatment, LPS alone 612,000±105,000): 303,000±109,000 RLU/15 min/mL | macrophage superoxide production ([1]; DM 1 μM pretreatment, LPS alone 612,000±105,000): 257,000±45,000 RLU/15 min/mL | TNF-α in medium ([2]; DM 0.01 μM pretreatment): 1.80 ± 0.53 ng/mL | TNF-α in medium ([2]; DM 0.1 μM pretreatment): 1.75 ± 0.33 ng/mL | TNF-α in medium ([2]; DM 1 μM pretreatment): 1.77 ± 0.42 ng/mL | total cholesterol, triglyceride, LDL, and HDL levels ([3]; DM treatment for 10 weeks vs controls): no significant differences | TNF-α in medium ([4]; DM 0.1 μM pretreatment): 6.42 ± 0.73 ng/mL | TNF-α in medium ([4]; DM 1 μM pretreatment): 5.85 ± 1.12 ng/mL | TNF-α production after LPS ([4]; DM pretreatment 10^−1 μM): 72 ± 2 % control | TNF-α production after LPS ([4]; DM pretreatment 10^−4 μM): 81 ± 9 % control | TNF-α production after LPS ([4]; DM pretreatment 10^−8 μM): 95 ± 7 % control | PMN production of superoxide ([5]; 5 mg/kg/day 10 weeks, P=NS): 460,000±138,000 RLU/15 min | PMN production of superoxide ([5]; 10 mg/kg/day 10 weeks): 390,000±63,000 RLU/15 min | PMN production of superoxide ([5]; 20 mg/kg/day 10 weeks): 328,000±82,000 RLU/15 min | PMN production of superoxide ([5]; 40 mg/kg/day 10 weeks): 328,000±82,000 RLU/15 min

C=CCN1CC[C@]23c4c5ccc(O)c4O[C@H]2C(=O)CC[C@@]3(O)[C@H]1C5 [Naloxone, 17-allyl-4,5α-epoxy-3,14-dihydroxymorphinan-6-one]
neuron protection / microglia activation (microglia; 1 μM naloxone, Liu et al. 2000): could protect neurons through inhibition of microglia activation | MCP-1 in medium [6]: 6.16 ± 0.16 ng/mL | macrophage superoxide production ([1]; 0.1 μM pretreatment, LPS alone 817,000±90,000): 364,000±202,000 RLU/10 min/mL | macrophage superoxide production ([1]; 1 μM pretreatment, LPS alone 817,000±90,000): 362,000±24,000 RLU/10 min/mL | TNFα in medium ([2]; 0.01 μM pretreatment): 0.85 ± 0.12 ng/mL | TNFα in medium ([2]; 0.1 μM pretreatment): 0.62 ± 0.04 ng/mL | TNFα in medium ([2]; 1 μM pretreatment): 0.60 ± 0.05 ng/mL | total cholesterol, triglyceride, LDL, and HDL levels ([3]; naloxone 10, 20, 25 mg/kg/day i.p. 10 weeks vs PBS): no significant differences | TNFα in medium ([4]; 0.01 μM pretreatment, LPS 100 ng/mL, LPS alone 8.02±0.42): 4.28 ± 0.39 ng/mL | most effective naloxone concentration range ([4]; inhibition of TNF-α production, THP-1, LPS): 0.01 to 1 µM | TNF-α production after LPS ([4]; naloxone pretreatment 1 μM): 55 ± 2 % control | TNF-α production after LPS ([4]; naloxone pretreatment 10^−1 μM): 51 ± 6 % control | TNF-α production after LPS ([4]; naloxone pretreatment 10^−2 μM): 53 ± 6 % control | TNF-α production after LPS ([4]; naloxone pretreatment 10^−3 μM): 67 ± 3 % control | TNF-α production after LPS ([4]; naloxone pretreatment 10^−4 μM): 74 ± 7 % control | TNF-α production after LPS ([4]; naloxone pretreatment 10^−5 μM): 93 ± 4 % control | TNF-α production after LPS ([4]; naloxone pretreatment 10^−6 μM): 90 ± 10 % control | MCP-1 in medium [7]: 0.95 ± 0.28 ng/mL
